Experimental data from patent publication US20230265151A1, “GIP/GLP1 CO-AGONIST COMPOUNDS” (priority 2020, published 2023).
Where two headings read alike, the source gives them in different places. *1 amine or outer side, *2 acyl side, *3 side chain or, on linkers, in order; H or OH if unused. Where a SMILES comes first, the peptide text is derived from it. Side-chain parts run from the residue outwards. [ ]: non-standard residue; d: D form. The star is where a group is joined. αMePhe(2-F) = C[C@](N)(Cc1ccccc1F)C(=O)O; γGlu = O=C(O)[C@H](CCC(=O)[*:2])N[*:1]; C14 diacid = O=C(O)CCCCCCCCCCCCC(=O)*; εLys = N[C@@H](CCCCN[*:1])C(=O)[*:2]; αMeY = C[C@](N)(Cc1ccc(O)cc1)C(=O)O; 4Pal = N[C@@H](Cc1ccncc1)C(=O)O; αMeL = CC(C)C[C@](C)(N)C(=O)O; Orn = NCCC[C@H](N)C(=O)O; Aib = CC(C)(N)C(=O)O

Experiments:
Assay type in all cases: cell-based
hGLP-1R = hGLP-1R (Homo sapiens, UniProt P43220); assay: Functional cAMP formation (HTRF) in HEK-293 clonal cells expressing hGLP-1R, 0.1% bovine casein, without or with 1.0% human serum albumin; design: expressed in transfected cells; details: for EC50: geometric mean, read-out: hGLP-1R EC50, nM (SEM, n); for Emax: HEK293, 0.1% bovine casein and 1.0% human serum albumin, percent of maximal response to GLP-1(7-36)NH2, read-out: hGLP-1R Emax, % ± SEM
Outline: (§1)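 Cells were stimulated with peptide for 30 min at 37° C, then lysed in buffer carrying cAMP-d2 and anti-cAMP Eu3+-cryptate for a competitive HTRF read after at least 60 min at room temperature. The 665/620 nm ratio was converted to nM cAMP against a standard curve.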

hGIPR = biological target: T1, hGIPR (Homo sapiens, UniProt P48546); assay: Functional cAMP formation (HTRF) in HEK-293 clonal cells expressing hGIPR, 0.1% bovine casein, without or with 1.0% human serum albumin; details: for EC50: geometric mean, read-out: hGIPR EC50, nM (SEM, n); for Emax: HEK293, 0.1% bovine casein and 1.0% human serum albumin, percent of maximal response to GIP(1-42)NH2, read-out: hGIPR Emax, % ± SEM
T1 construct: expressed in transfected cells
T1 sequence (P48546 22-466): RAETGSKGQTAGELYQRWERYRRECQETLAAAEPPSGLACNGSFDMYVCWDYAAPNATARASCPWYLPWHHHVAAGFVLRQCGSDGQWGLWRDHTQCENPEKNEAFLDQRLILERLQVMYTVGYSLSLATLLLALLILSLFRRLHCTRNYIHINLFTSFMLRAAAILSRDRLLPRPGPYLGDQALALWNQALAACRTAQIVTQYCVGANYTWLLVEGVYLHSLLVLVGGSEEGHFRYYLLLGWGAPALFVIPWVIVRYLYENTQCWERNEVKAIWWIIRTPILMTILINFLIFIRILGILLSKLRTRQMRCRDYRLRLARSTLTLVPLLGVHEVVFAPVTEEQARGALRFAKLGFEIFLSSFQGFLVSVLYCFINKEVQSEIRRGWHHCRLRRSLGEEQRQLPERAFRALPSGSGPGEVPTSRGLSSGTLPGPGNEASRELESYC
Outline: as §1

hGCGR = biological target: T2, hGCGR (Homo sapiens, UniProt P47871); assay: Functional cAMP formation (HTRF) in HEK-293 clonal cells expressing hGCGR, 0.1% bovine casein, without or with 1.0% human serum albumin; details: geometric mean, read-out: hGCGR EC50, nM (SEM, n)
T2 construct: expressed in transfected cells
Outline: as §1

[1] = 0.1% bovine casein and 1.0% human serum albumin, 37° C.
[2] = cAMP, incubated at 37° C., 0.1% bovine casein (no human serum albumin)

T2 sequence (P47871 26-477): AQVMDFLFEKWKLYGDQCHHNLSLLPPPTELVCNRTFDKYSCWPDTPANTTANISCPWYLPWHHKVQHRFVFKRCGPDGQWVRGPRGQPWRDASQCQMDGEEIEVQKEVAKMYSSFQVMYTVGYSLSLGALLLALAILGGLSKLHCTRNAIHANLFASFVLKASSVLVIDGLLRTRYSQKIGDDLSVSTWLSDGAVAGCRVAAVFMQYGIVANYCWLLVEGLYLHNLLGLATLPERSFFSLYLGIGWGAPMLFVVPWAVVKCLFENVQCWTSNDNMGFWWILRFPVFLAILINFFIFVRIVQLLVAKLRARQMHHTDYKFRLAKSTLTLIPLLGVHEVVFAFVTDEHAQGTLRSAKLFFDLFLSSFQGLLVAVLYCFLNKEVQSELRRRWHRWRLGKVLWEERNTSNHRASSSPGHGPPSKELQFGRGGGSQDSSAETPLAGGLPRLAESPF
Chain of hGLP-1R (P43220 24-463): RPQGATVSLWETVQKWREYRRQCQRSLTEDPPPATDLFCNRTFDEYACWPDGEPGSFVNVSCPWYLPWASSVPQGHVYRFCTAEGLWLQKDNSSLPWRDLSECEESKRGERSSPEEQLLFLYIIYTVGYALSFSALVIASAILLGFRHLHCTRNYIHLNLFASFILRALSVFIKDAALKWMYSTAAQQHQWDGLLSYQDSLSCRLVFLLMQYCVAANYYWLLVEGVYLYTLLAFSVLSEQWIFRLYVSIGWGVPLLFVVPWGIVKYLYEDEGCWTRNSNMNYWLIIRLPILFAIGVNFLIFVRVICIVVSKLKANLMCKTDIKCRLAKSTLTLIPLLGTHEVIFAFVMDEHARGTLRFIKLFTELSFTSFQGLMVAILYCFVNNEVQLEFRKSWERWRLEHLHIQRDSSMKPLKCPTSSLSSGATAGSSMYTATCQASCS

| EC50 (hGLP-1R; [2]) [nM] | EC50 (hGIPR; [2]) [nM] | Compound | EC50 (hGLP-1R; [1]) [nM] | Emax (hGLP-1R; 37° C.) [%] | EC50 (hGIPR; [1]) [nM] | Emax (hGIPR; 37° C.) [%] | EC50 (hGCGR; [1]) [nM] | EC50 (hGCGR; [2]) [nM] |
| --- | --- | --- | --- | --- | --- | --- | --- | --- |
| 0.386 | 0.026 | CC[C@H](C)[C@H](NC(=O)[C@H](CC(C)C)NC(=O)[C@](C)(Cc1ccc(O)cc1)NC(=O)[C@@H](CCC(=O)O)NC(=O)[C@@H](NC(=O)[C@H](Cc1ccccc1)NC(=O)[C@H](CCC(=O)O)NC(=O)C(C)(C)NC(=O)[C@H](CCC(N)=O)NC(=O)[C@H](C)NC(=O)[C@H](CCCCNC(=O)[C@@H](N)CCCCNC(=O)[C@@H](N)CCCCNC(=O)CC[C@H](NC(=O)CCCCCCCCCCCCC(=O)O)C(=O)O)NC(=O)[C@H](CCCN)NC(=O)[C@H](CC(=O)O)NC(=O)[C@H](CC(C)C)NC(=O)[C@](C)(CC(C)C)NC(=O)[C@@H](NC(=O)[C@H](CO)NC(=O)[C@H](Cc1ccncc1)NC(=O)[C@H](CC(=O)O)NC(=O)[C@H](CO)NC(=O)[C@@H](NC(=O)[C@](C)(Cc1ccccc1F)NC(=O)[C@@H](NC(=O)CNC(=O)[C@H](CCC(=O)O)NC(=O)C(C)(C)NC(=O)[C@@H](N)Cc1ccc(O)cc1)[C@@H](C)O)[C@@H](C)O)[C@@H](C)CC)[C@@H](C)CC)C(=O)N[C@@H](CCC(=O)O)C(=O)NCC(=O)NCC(=O)N[C@@H](CCCCNC(=O)[C@@H](N)CCCCNC(=O)[C@@H](N)CCCCNC(=O)CC[C@H](NC(=O)CCCCCCCCCCCCC(=O)O)C(=O)O)C(N)=O [Example 187] (H-Y[Aib]EGT[αMePhe(2-F)]TSD[4Pal]SI[αMeL]LD[Orn]K([εLys-εLys-γGlu-C14 diacid])AQ[Aib]EFI[dE][αMeY]LIEGGK([εLys-εLys-γGlu-C14 diacid])-NH2; N-terminus assumed) | 18 | 109 | 0.939 | 79.3 | > 9950 | > 9950 |
|  |  | CC[C@H](C)[C@H](NC(=O)[C@H](CC(C)C)NC(=O)[C@](C)(Cc1ccc(O)cc1)NC(=O)[C@@H](CCC(=O)O)NC(=O)[C@@H](NC(=O)[C@H](Cc1ccccc1)NC(=O)[C@H](CCCN)NC(=O)C(C)(C)NC(=O)[C@H](CCC(N)=O)NC(=O)[C@H](C)NC(=O)[C@H](CCCCNC(=O)COCCOCCNC(=O)COCCOCCNC(=O)CC[C@H](NC(=O)CCCCCCCCCCCCC(=O)O)C(=O)O)NC(=O)[C@H](CCCN)NC(=O)[C@H](CC(=O)O)NC(=O)[C@H](CC(C)C)NC(=O)[C@](C)(CC(C)C)NC(=O)[C@@H](NC(=O)[C@H](CO)NC(=O)[C@H](Cc1ccncc1)NC(=O)[C@H](CC(=O)O)NC(=O)[C@H](CO)NC(=O)[C@@H](NC(=O)[C@](C)(Cc1ccccc1F)NC(=O)[C@@H](NC(=O)CNC(=O)[C@H](CCC(=O)O)NC(=O)C(C)(C)NC(=O)[C@@H](N)Cc1ccc(O)cc1)[C@@H](C)O)[C@@H](C)O)[C@@H](C)CC)[C@@H](C)CC)C(=O)N[C@@H](CCC(=O)O)C(=O)NCC(=O)NCC(=O)N[C@@H](CCCCNC(=O)COCCOCCNC(=O)COCCOCCNC(=O)CC[C@H](NC(=O)CCCCCCCCCCCCC(=O)O)C(=O)O)C(=O)N[C@@H](CO)C(=O)N[C@@H](CO)C(=O)NCC(=O)N[C@@H](C)C(=O)N1CCC[C@H]1C(=O)N1CCC[C@H]1C(=O)N1CCC[C@H]1C(=O)N[C@@H](CO)C(N)=O [Example 150] | 11 | 100 ± 3.8 | 0.35 | 81.3 ± 3.18 | > 9950 | > 9950 |
